Measurements as given in patent US12565490B2, “Inhibitors of Receptor Interacting Protein Kinase I for the treatment of disease” (Board of Regents, The University of Texas System, priority 2020, dated 2026).

Test system: human monocytic cell line U937
Assay: Human U937 cellular necroptosis assay
Assay type: cell-based
Details: U-937; U937 cells stimulated with 25 ng/mL human TNFalpha and 25 μM z-VAD-FMK; 22 hr; viability by Cell Titer-Glo 2.0; read-out: hU937 IC50
Outline: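 U937 cells (5000/well) driven to necroptosis by 25 ng/mL human TNFalpha plus 25 μM z-VAD-FMK alongside 1:3-diluted compounds, 22 hr at 37° C, 5% CO2. Viability by CellTiter-Glo luminescence; IC50 from four-parameter logistic fit.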

| Structure (SMILES) | IC50 [nM] |
| --- | --- |
| CN1C(=O)[C@@H](NC(=O)c2ncc(Cl)c(-c3ccc(F)cc3F)n2)COc2cc(C#N)ccc21 [Example 138, (S)-5-chloro-N-(8-cyano-5-methyl-4-oxo-2,3,4,5-tetrahydrobenzo[b]-[1,4]oxazepin-3-yl)-4-(2,4-difluorophenyl)pyrimidine-2-carboxamide] | 16.4 |
| Cc1ccc(-c2nc(C(=O)N[C@H]3COc4cc(C#N)ccc4N(C)C3=O)ncc2Cl)c(F)c1 [Example 139, (S)-5-chloro-N-(8-cyano-5-methyl-4-oxo-2,3,4,5-tetrahydrobenzo[b]-[1,4]oxazepin-3-yl)-4-(2-fluoro-4-methylphenyl)pyrimidine-2-carboxamide] | 32.6 |
| CN1C(=O)[C@@H](NC(=O)c2ncc(Cl)c(-c3ccc(F)cc3F)n2)COc2ccc(NCC(F)(F)CCl)cc21 [Example 140, (S)-5-chloro-N-(7-((3-chloro-2,2-difluoropropyl)amino)-5-methyl-4-oxo-2,3,4,5-tetrahydrobenzo[b]-[1,4]oxazepin-3-yl)-4-(2,4-difluorophenyl)pyrimidine-2-carboxamide] | 35.4 |
| CN1C(=O)[C@@H](NC(=O)c2ncc(Cl)c(-c3ccc(F)cc3F)n2)COc2ccc(NCC3(CCl)CCOCC3)cc21 [Example 141, (S)-5-chloro-N-(7-(((4-(chloromethyl)tetrahydro-2H-pyran-4-yl)methyl)amino)-5-methyl-4-oxo-2,3,4,5-tetrahydrobenzo[b]-[1,4]oxazepin-3-yl)-4-(2,4-difluorophenyl)pyrimidine-2-carboxamide] | 14.5 |
| CN1C(=O)[C@@H](NC(=O)c2ncc(Cl)c(-c3cc(F)ccc3F)n2)COc2ccc(NCC3(CCl)CCOCC3)cc21 [Example 142, (S)-5-chloro-N-(7-(((4-(chloromethyl)tetrahydro-2H-pyran-4-yl)methyl)amino)-5-methyl-4-oxo-2,3,4,5-tetrahydrobenzo[b]-[1,4]oxazepin-3-yl)-4-(2,5-difluorophenyl)pyrimidine-2-carboxamide] | 19 |
| CN1C(=O)[C@@H](NC(=O)c2ncc(Cl)c(-c3ccc(F)cc3F)n2)COc2ccc(N3CCOCC3)cc21 [Example 143, (S)-5-chloro-4-(2,4-difluorophenyl)-N-(5-methyl-7-morpholino-4-oxo-2,3,4,5-tetrahydrobenzo[b]-[1,4]oxazepin-3-yl)pyrimidine-2-carboxamide] | 71 |
| CN1C(=O)[C@@H](NC(=O)c2ncc(Cl)c(-c3cc(F)ccc3F)n2)COc2ccc(N3CC4(CCOCC4)C3)cc21 [Example 144, (S)-5-chloro-4-(2,5-difluorophenyl)-N-(5-methyl-4-oxo-7-(7-oxa-2-azaspiro[3.5]nonan-2-yl)-2,3,4,5-tetrahydrobenzo[b]-[1,4]oxazepin-3-yl)pyrimidine-2-carboxamide] | 15.8 |
| Cc1ccc(-c2nc(C(=O)N[C@H]3COc4ccc(N5CC6(CCOCC6)C5)cc4N(C)C3=O)ncc2Cl)cc1F [Example 145, (S)-5-chloro-4-(3-fluoro-4-methylphenyl)-N-(5-methyl-4-oxo-7-(7-oxa-2-azaspiro[3.5]nonan-2-yl)-2,3,4,5-tetrahydrobenzo[b]-[1,4]oxazepin-3-yl)pyrimidine-2-carboxamide] | 11 |
| COCCOc1ccc2c(c1)N(C)C(=O)[C@@H](NC(=O)c1ncc(Cl)c(-c3ccc(F)cc3F)n1)CO2 [Example 146, (S)-5-chloro-4-(2,4-difluorophenyl)-N-(7-(2-methoxyethoxy)-5-methyl-4-oxo-2,3,4,5-tetrahydrobenzo[b]-[1,4]oxazepin-3-yl)pyrimidine-2-carboxamide] | 19.4 |
| CN1C(=O)[C@@H](NC(=O)c2ncc(Cl)c(-c3ccc(F)cc3F)n2)COc2ccc(OCC(CO)CCl)cc21 (stereo partly drawn) [Example 147, 5-chloro-N-((3S)-7-(3-chloro-2-(hydroxymethyl)propoxy)-5-methyl-4-oxo-2,3,4,5-tetrahydrobenzo[b]-[1,4]oxazepin-3-yl)-4-(2,4-difluorophenyl)pyrimidine-2-carboxamide] | 20.9 |
| CN1C(=O)[C@@H](NC(=O)c2ncc(Cl)c(-c3ccc(F)cc3F)n2)COc2ccc(Oc3ccn(C)n3)cc21 [Example 148, (S)-5-chloro-4-(2,4-difluorophenyl)-N-(5-methyl-7-((1-methyl-1H-pyrazol-3-yl)oxy)-4-oxo-2,3,4,5-tetrahydrobenzo[b]-[1,4]oxazepin-3-yl)pyrimidine-2-carboxamide] | 8.58 |
| CN1C(=O)[C@@H](NC(=O)c2ncc(Cl)c(-c3ccc(F)cc3F)n2)COc2ccc(-c3ccnn3C)cc21 [Example 149, (S)-5-chloro-4-(2,4-difluorophenyl)-N-(5-methyl-7-(1-methyl-1H-pyrazol-5-yl)-4-oxo-2,3,4,5-tetrahydrobenzo[b]-[1,4]oxazepin-3-yl)pyrimidine-2-carboxamide] | 19.8 |
| CN1C(=O)[C@@H](NC(=O)c2ncc(Cl)c(-c3ccc(F)cc3F)n2)COc2ccc(-c3cnn(C)c3)cc21 [Example 150, (S)-5-chloro-4-(2,4-difluorophenyl)-N-(5-methyl-7-(1-methyl-1H-pyrazol-4-yl)-4-oxo-2,3,4,5-tetrahydrobenzo[b]-[1,4]oxazepin-3-yl)pyrimidine-2-carboxamide] | 14.2 |
| CN1C(=O)[C@@H](NC(=O)c2ncc(Cl)c(-c3ccc(F)cc3F)n2)COc2ccc(-c3cn[nH]c3)cc21 [Example 151] | 13 |
| Cc1cnn(-c2ccc3c(c2)N(C)C(=O)[C@@H](NC(=O)c2ncc(Cl)c(-c4ccc(F)cc4F)n2)CO3)c1 [Example 152, (S)-5-chloro-4-(2,4-difluorophenyl)-N-(5-methyl-7-(4-methyl-1H-pyrazol-1-yl)-4-oxo-2,3,4,5-tetrahydrobenzo[b]-[1,4]oxazepin-3-yl)pyrimidine-2-carboxamide] | 29.2 |
| Cc1ccc(-c2nc(C(=O)N[C@H]3COc4ccc(CN5CCn6ncnc6C5)cc4N(C)C3=O)ncc2Cl)cc1F [Example 153, (S)-5-chloro-N-(7-((5,6-dihydro-[1,2,4]triazolo[1,5-a]pyrazin-7(8H)-yl)methyl)-5-methyl-4-oxo-2,3,4,5-tetrahydrobenzo[b]-[1,4]oxazepin-3-yl)-4-(3-fluoro-4-methylphenyl)pyrimidine-2-carboxamide] | 10 |
| CN1C(=O)[C@@H](NC(=O)c2ncc(Cl)c(-c3ccc(F)cc3F)n2)COc2cc(CN3CCn4ncnc4C3)ccc21 [Example 154, (S)-5-chloro-4-(2,4-difluorophenyl)-N-(8-((5,6-dihydro-[1,2,4]triazolo[1,5-a]pyrazin-7(8H)-yl)methyl)-5-methyl-4-oxo-2,3,4,5-tetrahydrobenzo[b]-[1,4]oxazepin-3-yl)pyrimidine-2-carboxamide] | 32.1 |
| CN1C(=O)[C@@H](NC(=O)c2ncc(Cl)c(-c3cc(F)ccc3F)n2)COc2cc(CN3CCn4ncnc4C3)ccc21 [Example 155, (S)-5-chloro-4-(2,5-difluorophenyl)-N-(8-((5,6-dihydro-[1,2,4]triazolo[1,5-a]pyrazin-7(8H)-yl)methyl)-5-methyl-4-oxo-2,3,4,5-tetrahydrobenzo[b]-[1,4]oxazepin-3-yl)pyrimidine-2-carboxamide] | 24.8 |
| Cc1cnc(C(=O)N[C@H]2COc3ccc(CN4CCn5ncnc5C4)cc3N(C)C2=O)nc1-c1ccccc1F [Example 156, (S)-N-(7-((5,6-dihydro-[1,2,4]triazolo[1,5-a]pyrazin-7(8H)-yl)methyl)-5-methyl-4-oxo-2,3,4,5-tetrahydrobenzo[b]-[1,4]oxazepin-3-yl)-4-(2-fluorophenyl)-5-methylpyrimidine-2-carboxamide] | 17.1 |
| Cc1cnc(C(=O)N[C@H]2COc3cc(Cl)cnc3N(C)C2=O)nc1-c1cc(C(F)(F)F)cs1 [Example 157, (S)-N-(8-chloro-5-methyl-4-oxo-2,3,4,5-tetrahydro-pyrido[3,2-b][1,4]oxazepin-3-yl)-5-methyl-4-(4-(trifluoromethyl)thiophen-2-yl)-pyrimidine-2-carboxamide] | 423 |
| Cc1cnc(C(=O)N[C@H]2COc3cc(Cl)cnc3N(C)C2=O)nc1C1CCC(F)(F)CO1 (stereo partly drawn) [Example 158, N-((S)-8-chloro-5-methyl-4-oxo-2,3,4,5-tetrahydro-pyrido[3,2-b][1,4]oxazepin-3-yl)-4-(5,5-difluorotetrahydro-2H-pyran-2-yl)-5-methylpyrimidine-2-carboxamide] | 149 |
| Cc1cnc(C(=O)N[C@H]2COc3ccc(Oc4cnn(C)c4)cc3N(C)C2=O)nc1-c1ccccc1F [Example 159, (S)-4-(2-fluorophenyl)-5-methyl-N-(5-methyl-7-((1-methyl-1H-pyrazol-4-yl)oxy)-4-oxo-2,3,4,5-tetrahydrobenzo[b]-[1,4]oxazepin-3-yl)pyrimidine-2-carboxamide] | 9 |
| Cc1cnc(C(=O)N[C@H]2COc3ccc(Oc4cnn(C)c4)cc3N(C)C2=O)nc1-c1ccc(C#N)cc1 [Example 160, (S)-4-(4-cyanophenyl)-5-methyl-N-(5-methyl-7-((1-methyl-1H-pyrazol-4-yl)oxy)-4-oxo-2,3,4,5-tetrahydrobenzo[b]-[1,4]oxazepin-3-yl)pyrimidine-2-carboxamide] | 24 |
| CN1C(=O)[C@@H](NC(=O)c2ncc(Cl)c(-c3cc(F)ccc3F)n2)COc2ccc(Oc3cnn(C)c3)cc21 [Example 161, (S)-5-chloro-4-(2,5-difluorophenyl)-N-(5-methyl-7-((1-methyl-1H-pyrazol-4-yl)oxy)-4-oxo-2,3,4,5-tetrahydrobenzo[b]-[1,4]oxazepin-3-yl)pyrimidine-2-carboxamide] | 9 |
| CN1C(=O)[C@@H](NC(=O)c2ncc(CN)c(-c3ccccc3)n2)COc2cc(Cl)cnc21 [Example 162, (S)-5-(aminomethyl)-N-(8-chloro-5-methyl-4-oxo-2,3,4,5-tetrahydropyrido[3,2-b][1,4]oxazepin-3-yl)-4-phenylpyrimidine-2-carboxamide] | 122 |
| CN1C(=O)[C@@H](NC(=O)c2ncc(Cl)c([C@@H]3COCCO3)n2)COc2cc(Cl)cnc21 [Example 163a, 5-chloro-N—((S)-8-chloro-5-methyl-4-oxo-2,3,4,5-tetrahydropyrido[3,2-b][1,4]oxazepin-3-yl)-4-((R)-1,4-dioxan-2-yl)pyrimidine-2-carboxamide] | 172 |
